# Assays:
# [1] = target: T1, CpdB_Ndom (N-terminal domain of CpdB) (Escherichia coli, UniProt P08331, D305N/I97V/M87I); type: biochemical; conditions: for K M / k cat / k cat /K M: CpdB_Ndom, substance is the substrate, mean ± SD of three experiments
# T1 construct: GST (N, cleaved yes); made in house; host or cells: E. coli BL21
# Method: With all the detectably hydrolyzed substrates, saturation kinetics was studied and parameters kcat and KM were determined from Michaelis-Menten plots (Table 1).
# The same assay was used with 2′,3′- or 3′,5′-cyclic nucleotides, CDP-choline and bis-4-NPP except that an excess of alkaline phosphatase was included in the reaction mixture as auxiliary enzyme.
# Datasets obtained with different substrates in the absence of inhibitors were used to derive kcat and KM values by adjusting the Michaelis-Menten equation to the experimental points by non-linear regression.
# Mature CpdB = Mature CpdB (Escherichia coli, UniProt P08331); set-up: A structural model of mature CpdB (aa 20–647) was built; GST (N, cleaved yes); made in house; host or cells: E. coli BL21; conditions: substance is the substrate; cited from earlier work
# Sequence of Mature CpdB (P08331 20-647): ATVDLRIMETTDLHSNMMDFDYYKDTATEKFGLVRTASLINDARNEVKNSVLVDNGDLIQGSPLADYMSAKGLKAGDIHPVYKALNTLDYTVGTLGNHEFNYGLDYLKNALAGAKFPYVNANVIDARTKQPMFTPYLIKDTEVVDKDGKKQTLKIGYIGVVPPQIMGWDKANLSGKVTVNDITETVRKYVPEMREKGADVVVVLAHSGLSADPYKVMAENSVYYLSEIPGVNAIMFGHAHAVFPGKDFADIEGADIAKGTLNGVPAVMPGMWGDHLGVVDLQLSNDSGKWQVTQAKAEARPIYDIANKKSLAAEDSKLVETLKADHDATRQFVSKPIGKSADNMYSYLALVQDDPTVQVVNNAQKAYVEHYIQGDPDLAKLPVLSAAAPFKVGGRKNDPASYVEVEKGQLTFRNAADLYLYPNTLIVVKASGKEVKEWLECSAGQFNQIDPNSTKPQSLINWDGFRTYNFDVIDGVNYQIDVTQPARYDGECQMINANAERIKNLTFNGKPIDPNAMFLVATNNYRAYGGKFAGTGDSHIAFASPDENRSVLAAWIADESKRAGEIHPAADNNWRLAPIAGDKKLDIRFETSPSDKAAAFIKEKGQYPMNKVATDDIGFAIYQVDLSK
# T1 sequence (P08331 20-354 M87I/I97V/D305N): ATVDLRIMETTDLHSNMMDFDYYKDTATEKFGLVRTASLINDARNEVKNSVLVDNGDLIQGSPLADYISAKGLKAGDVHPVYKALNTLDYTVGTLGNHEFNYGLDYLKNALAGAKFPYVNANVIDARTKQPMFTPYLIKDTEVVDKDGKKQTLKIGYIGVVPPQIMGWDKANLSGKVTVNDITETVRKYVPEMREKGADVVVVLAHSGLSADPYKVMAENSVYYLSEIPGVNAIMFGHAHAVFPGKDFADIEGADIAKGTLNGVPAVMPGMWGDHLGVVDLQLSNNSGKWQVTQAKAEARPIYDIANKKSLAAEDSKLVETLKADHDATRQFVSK
Compound,K M [1] [µM],k cat [1] [s⁻¹],k cat /K M [1],K M (Mature CpdB) [µM],k cat (Mature CpdB) [s⁻¹],k cat /K M (catalytic efficiency) (Mature CpdB),Stronger loss of catalytic efficiency than on c-di-AMP caused by the deletion of the C domain ([1]; CpdB_Ndom versus mature CpdB) [fold]
"Nc1ccn([C@@H]2O[C@H](CO)[C@H]3OP(=O)(O)O[C@H]32)c(=O)n1 [2′,3′-cCMP]",180 ± 50,33 ± 5,"200,000 ± 80,000 M^−1 s^−1",12,100,"8,500,000 M^−1 s^−1",–
"Nc1nc2c(ncn2[C@@H]2O[C@H](CO)[C@H]3OP(=O)(O)O[C@H]32)c(=O)[nH]1 [2′,3′-cGMP]",570 ± 160,58 ± 16,"100,000 ± 13,000 M^−1 s^−1",25,84,"3,500,000 M^−1 s^−1",–
"O=c1ccn([C@@H]2O[C@H](CO)[C@H]3OP(=O)(O)O[C@H]32)c(=O)[nH]1 [2′,3′-cUMP]",630 ± 170,155 ± 32,"250,000 ± 50,000 M^−1 s^−1",62,260,"4,200,000 M^−1 s^−1",–
"Nc1ncnc2c1ncn2[C@@H]1O[C@@H]2COP(=O)(O)O[C@H]2[C@H]1O [3′,5′-cAMP]",6900 ± 2600,–,–,4600,–,–,–
C[N+](C)(C)CCOP(=O)(O)OP(=O)([O-])OC[C@H]1O[C@@H](n2ccc(N)nc2=O)[C@H](O)[C@@H]1O [CDP-choline],2900 ± 1700,5.7 ± 3.5,1950 ± 130 M⁻¹ s⁻¹,219,0.51,2300 M⁻¹ s⁻¹,–
"Nc1ncnc2c1ncn2[C@@H]1O[C@@H]2COP(=O)(O)O[C@H]3[C@@H](O)[C@H](n4cnc5c(N)ncnc54)O[C@@H]3COP(=O)(O)O[C@H]2[C@H]1O [c-di-AMP, 3′,5′-cyclic diadenosine monophosphate]",3400 ± 2200,0.012 ± 0.007,3.5 ± 0.1 M⁻¹ s⁻¹,15,0.40,"29,000 M^−1 s^−1",–
"Nc1nc2c(ncn2[C@@H]2O[C@@H]3COP(=O)(O)O[C@H]4[C@@H](O)[C@H](n5cnc6c(=O)[nH]c(N)nc65)O[C@@H]4COP(=O)(O)O[C@H]3[C@H]2O)c(=O)[nH]1 [c-di-GMP, 3′,5′-cyclic diguanosine monophosphate]",250 ± 30,0.0003 ± 0.0001,1.2 ± 0.4 M⁻¹ s⁻¹,6,0.07,"13,000 M^−1 s^−1",–
"Nc1ncnc2c1ncn2[C@@H]1O[C@H](COP(=O)(O)O[C@H]2[C@@H](O)[C@H](n3cnc4c(N)ncnc43)O[C@@H]2COP(=O)(O)O)[C@@H](O)[C@H]1O [pApA, 5′-phosphoadenylyl-3′→5′-adenosine]",230 ± 40,0.0004 ± 0.0001,1.8 ± 0.2 M⁻¹ s⁻¹,0.6,1.30,"2,300,000 M^−1 s^−1",100

# Reference: PMC7922932, “Molecular Dissection of Escherichia coli CpdB: Roles of the N Domain in Catalysis and Phosphate Inhibition, and of the C Domain in Substrate Specificity and Adenosine Inhibition” (International Journal of Molecular Sciences, 2021)
